The text below walks through data of patent US20200377459A1, “CHARGED ION CHANNEL BLOCKERS AND METHODS FOR USE” (President and Fellows of Harvard College, priority 2015, published 2020).

One assay addresses T1, human Nav1.7 channels (Homo sapiens, UniProt Q15858).
T1 construct: expressed in transfected cells
In words: Whole-cell patch clamp, use-dependent block of sodium current, drug applied intracellularly or externally. In kind it is cell-based. Particulars: for effect on sodium current when applied externally versus inside the cell: same protocol, applied outside the cell. The method, then:
Whole-cell recordings were made of currents carried by voltage-activated channels in HEK293 cells stably expressing human Nav1.7 channels. Recordings were made using patch pipettes with resistances of 2-3.5 MQ when filled with internal solution, consisting of 61 mM CsF, 61 mM CsCl, 9 mM NaCl, 1.8 mM MgCl2, 9 mM EGTA, 14 mM creatine phosphate (tris salt), 4 mM MgATP, and 0.3 mM GTP (tris salt), 9 mM HEPES, pH adjusted to 7.2 with CsOH. The shank of the electrode was wrapped with Parafilm in order to reduce capacitance and allow optimal series resistance compensation without oscillation. Seals were obtained and the whole-cell configuration established with cells in Tyrode's solution (155 mM NaCl, 3.5 mM KCl, 1.5 mM CaCl2), 1 mM MgCl2, 10 mM HEPES, 10 mM glucose, pH adjusted to 7.4 with NaOH) with 10 mM TEACl. To ensure complete dialysis with pipette solution, recordings began after 5 to 10 min after establishment of the whole-cell configuration.
Currents were recorded at room temperature (21-23° C.) with an Axopatch 200 amplifier and filtered at 5 kHz with a low-pass Bessel filter. The amplifier was tuned for partial compensation of series resistance (typically 70-80% of a total series resistance of 4-10 MO). Currents were digitized using a Digidata 1322A data acquisition interface controlled by pClamp9.2 software (Axon Instruments) and analyzed using programs written in Igor Pro 4.0 (Wavemetrics, Lake Oswego, Oreg.). Currents were corrected for linear capacitative and leak currents determined using 5 mV hyperpolarizations delivered from the resting potential (usually −80 or −100 mV) and then appropriately scaled and subtracted.
Sodium currents were evoked by 30-msec depolarizations from −100 mV to −20 mV. To assay use-dependent block, pulses were delivered at series of increasing rates: 0.05 Hz for 1-min, 0.33 Hz for 1-min, 1 Hz for 1-min, 3 Hz for 1-min, 5 Hz for 30 seconds, 10 Hz for 30 seconds, with 1 minute rest between each series of pulses. After the series of pulses to induce use-dependent block, the time course of recovery was followed using pulses delivered at 01. Hz (2-min) and 0.05 Hz (1-min).
To induce use-dependent block, the depolarizations were delivered by series of increasing rates: 0.05 Hz for 1-min, 0.33 Hz for 1-min, 1 Hz for 1-min, 3 Hz for 1-min, 5 Hz for 30 seconds, 10 Hz for 30 seconds, with 1 minute rest between each series of pulses. After the series of pulses to induce use-dependent block, the time course of recovery was followed using pulses delivered at 01. Hz (2-min) and 0.05 Hz (1-min). Peak sodium current was plotted as a function of experimental time (1-min per division on the time axis).

For assay [1], the system named is CFA-induced thermal hyperalgesia. The experiment in a line: CFA-induced thermal hyperalgesia (Hargreaves radiant heat, hind paw). In kind it is in vivo. Particulars: mice, intraplantar co-injection with CFA, 1%. The method, then:
FIGS. 2A-2D show reversal of CFA-induced thermal hyperalgesia by charged sodium channel blockers. FIGS. 2A and 2C show time course (0, 1, 6, and 24 hours) of changes in thermal nociceptive sensitivity measured as response latency (seconds) to a constant radiant heat source applied to the plantar surface of hind paw in mice co-treated with 20 μL (injected in the left hindpaw) of CFA (50% emulsion) and saline, and when the CFA was co-applied with QX-314 (1%, hollow square), N-ethyl etidocaine (Compound 21, 1%; dark square), or ACS8180-3B (Compound 3, 1%; solid triangle). FIGS. 2B and 2D show the nociceptive heat pain response time before CFA treatment and after treatment with the different compounds 1 hour post CFA injection. The data are means±SEM of 8-16 mice per group. The statistical comparison with pre-CFA (*) and with CFA+Vehicle (+) is indicated by +P<0.05; ++P<0.01 and +++,*** P<0.001. All procedures were approved by the Institutional Animal Care and Use Committees. Mice and rats were housed in standard environmental conditions (12-h light/dark cycle; 23° C.; food and water ad libitum) at facilities accredited by the Association for Assessment and Accreditation of Laboratory Animal Care. 8-week old male BALB/c (stock number: 001026) and C57BL/6J (stock number 000664) mice were purchased from Jackson Laboratory and respectively used in allergic airway inflammation (FIG. 5) and pain hypersensitivity model (FIGS. 2A-2D). 6-week old male Sprague-Dawley (stock number: 400) rats, 150±25 grams, were purchased from Charles River laboratory and used to assess pain hypersensitivity (FIG. 3). The compounds were injected in the plantar surface of each animal's right hind paw in 10 μl (mice) or 50 μl (rats) volume of 1:1 emulsion of Complete Freund's Adjuvant (CFA). […] On the 4th day, their thermal nociceptive threshold was evaluated. […] Impact of treatment was analyzed 1 h prior and 1, 3, 6 and 24 h post-treatment. […] With each reading the apparatus was set with a cut-off time of 32 s.

The subject of assay [2] is thermal nociceptive threshold. In words: Thermal nociceptive threshold after acute intraplantar injection in naive animals. The format is in vivo, rats. The following applies: naïve animals.

T1 sequence (Q15858 whole entry): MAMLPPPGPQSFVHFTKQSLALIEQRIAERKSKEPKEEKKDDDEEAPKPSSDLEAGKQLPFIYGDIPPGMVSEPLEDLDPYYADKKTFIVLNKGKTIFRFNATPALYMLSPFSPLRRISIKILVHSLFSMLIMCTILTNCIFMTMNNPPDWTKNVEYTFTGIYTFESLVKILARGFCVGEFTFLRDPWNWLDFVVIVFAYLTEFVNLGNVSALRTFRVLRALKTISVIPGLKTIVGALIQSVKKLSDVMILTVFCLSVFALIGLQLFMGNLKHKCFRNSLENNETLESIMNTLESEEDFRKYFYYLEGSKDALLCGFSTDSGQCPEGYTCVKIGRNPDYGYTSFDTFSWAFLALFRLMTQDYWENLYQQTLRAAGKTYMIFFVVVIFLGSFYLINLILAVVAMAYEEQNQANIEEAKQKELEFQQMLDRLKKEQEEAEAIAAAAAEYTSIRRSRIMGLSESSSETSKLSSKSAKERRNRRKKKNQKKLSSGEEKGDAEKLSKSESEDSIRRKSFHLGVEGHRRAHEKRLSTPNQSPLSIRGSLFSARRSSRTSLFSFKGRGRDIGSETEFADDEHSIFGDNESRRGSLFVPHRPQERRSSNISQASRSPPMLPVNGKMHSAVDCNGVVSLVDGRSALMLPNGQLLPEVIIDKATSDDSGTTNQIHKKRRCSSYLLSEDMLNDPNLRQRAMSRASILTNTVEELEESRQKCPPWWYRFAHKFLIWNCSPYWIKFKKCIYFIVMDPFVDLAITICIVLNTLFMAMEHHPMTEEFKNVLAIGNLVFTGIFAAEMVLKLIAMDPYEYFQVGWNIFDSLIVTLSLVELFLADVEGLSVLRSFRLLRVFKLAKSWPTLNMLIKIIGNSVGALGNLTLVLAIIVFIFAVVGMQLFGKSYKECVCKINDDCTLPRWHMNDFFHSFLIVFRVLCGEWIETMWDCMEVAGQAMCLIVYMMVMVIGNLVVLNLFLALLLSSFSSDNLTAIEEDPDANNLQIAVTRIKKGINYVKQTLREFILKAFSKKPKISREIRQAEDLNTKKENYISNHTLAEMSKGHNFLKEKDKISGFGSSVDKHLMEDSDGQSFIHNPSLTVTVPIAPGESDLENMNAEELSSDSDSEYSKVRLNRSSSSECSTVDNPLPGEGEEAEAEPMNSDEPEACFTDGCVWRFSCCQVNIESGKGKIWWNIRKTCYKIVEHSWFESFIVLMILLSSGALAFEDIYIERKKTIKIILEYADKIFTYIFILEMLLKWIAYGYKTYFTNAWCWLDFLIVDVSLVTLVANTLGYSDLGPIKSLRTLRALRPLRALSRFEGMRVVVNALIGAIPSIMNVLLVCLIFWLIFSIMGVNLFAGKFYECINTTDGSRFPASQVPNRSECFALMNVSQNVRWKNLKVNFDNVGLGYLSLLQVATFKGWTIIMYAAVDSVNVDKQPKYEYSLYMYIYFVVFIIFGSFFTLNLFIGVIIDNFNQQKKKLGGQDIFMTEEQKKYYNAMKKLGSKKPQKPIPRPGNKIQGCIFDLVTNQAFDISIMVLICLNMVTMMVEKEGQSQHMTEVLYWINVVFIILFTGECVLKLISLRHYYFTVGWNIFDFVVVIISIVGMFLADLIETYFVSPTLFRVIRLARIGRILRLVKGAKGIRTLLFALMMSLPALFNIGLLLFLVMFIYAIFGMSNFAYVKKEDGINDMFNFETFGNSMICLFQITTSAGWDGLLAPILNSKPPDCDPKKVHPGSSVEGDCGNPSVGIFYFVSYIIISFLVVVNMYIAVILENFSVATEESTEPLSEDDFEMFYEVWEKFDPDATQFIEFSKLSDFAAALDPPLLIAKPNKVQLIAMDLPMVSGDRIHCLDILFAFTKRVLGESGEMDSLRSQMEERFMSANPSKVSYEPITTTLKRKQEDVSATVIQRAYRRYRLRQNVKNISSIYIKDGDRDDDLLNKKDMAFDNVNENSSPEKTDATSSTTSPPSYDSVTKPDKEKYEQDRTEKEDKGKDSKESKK

The inhibition is the percentage by which the read-out fell short of the control. In the case of `Cc1cccc(C)c1NC(=O)C(C)[N+]1(C)CCCCC1` (stereo not shown) [Compound 4, 1-(1-(2,6-dimethylphenylamino)-1-oxopropan-2-yl)-1-methylpiperidinium Chloride], the inhibition at 100 µM against human Nav1.7 channels was found to be 43%. The same measure, in the same setting: in the case of `CC[N+](CC)(CC)CC(=O)Nc1c(C)cc(N)cc1C` [Compound 23, 2-(4-amino-2,6-dimethylphenylamino)-N, N, N-triethyl-2-oxoethanaminium Chloride] it was 56%; in that of `CC[N+](CC)(CC)CCNC(=O)c1c(C)cccc1C` [Compound 25], 3%. The same measure, in the same setting: in the case of `Cc1cccc(C)c1NC(=O)C(C)(C)[N+]1(C)CCCCC1` [Compound 5, 1-(1-(2,6-dimethylphenylamino)-2-methyl-1-oxopropan-2-yl)-1-methylpiperidinium Chloride] it was 34%; in that of `CC[N+]1(CC)CCCC1C(=O)Nc1c(C)cccc1C` (stereo not shown) [Compound 14, 2-(2,6-dimethylphenylcarbamoyl)-1,1-diethylpyrrolidinium Chloride], 62%. The same measure, in the same setting: with `Cc1cccc(C)c1NC(=O)C(C)(C)[N+]1(C)CCCC1` [Compound 2, 1-(1-(2,6-dimethylphenylamino)-2-methyl-1-oxopropan-2-yl)-1-methylpyrrolidinium Chloride] the figure was 42%. On human Nav1.7 channels, `CC[N+](CC)(CC)CC(=O)Nc1ccc(N)cc1` [Compound 22, 2-(4-aminophenylamino)-N,N,N-triethyl-2-oxoethanaminium] registered an inhibition at 100 µM of 0%. On human Nav1.7 channels, `CCC(C(=O)Nc1c(C)cccc1C)[N+]1(CC)CCCC1` (stereo not shown) [Compound 3, 1-(1-(2,6-dimethylphenylamino)-1-oxobutan-2-yl)-1-ethylpyrrolidinium Chloride] gave an inhibition at 100 µM of 78%. Also, the “reversal of CFA-induced thermal hyperalgesia” value in assay [1] was “potent blockade”. In addition, the “long lasting analgesia in naïve animals” value in assay [2] was “without long lasting analgesia”. In the case of `Cc1cc(F)cc(C)c1NC(=O)C1CCCC[N+]1(C)C` (stereo not shown) [Compound 16, 2-(4-fluoro-2,6-dimethylphenylcarbamoyl)-1,1-dimethylpiperidinium Chloride], the inhibition at 100 µM at human Nav1.7 channels is 70%. On the same count and under the same terms, with `CC[N+]1(CC)CCCCC1C(=O)Nc1c(C)cccc1C` (stereo not shown) [Compound 15, 2-(2,6-dimethylphenylcarbamoyl)-1,1-diethylpiperidinium Chloride] the figure was 40%. The compound `Cc1cccc(C)c1NC(=O)C1CCC[N+]1(C)C` (stereo not shown) [Compound 13, 2-(2,6-dimethylphenylcarbamoyl)-1,1-dimethylpyrrolidinium Chloride] had an inhibition at 100 µM against human Nav1.7 channels of 33%. As to `CC[N+](CC)(CC)CCC(=O)Nc1c(C)cccc1C` [Compound 24, 3-(2,6-dimethylphenylamino)-N,N,N-triethyl-3-oxopropan-1-aminium Chloride], the inhibition at 100 µM at human Nav1.7 channels came out at 15%. The same measure, in the same setting: with `Cc1cccc(C)c1NC(=O)C(C)[N+]1(C)CCCC1` (stereo not shown) [Compound 1, 1-(1-(2,6-dimethylphenylamino)-1-oxopropan-2-yl)-1-methylpyrrolidinium Chloride] the figure was 40%.

With `CCC(C(=O)Nc1c(C)cccc1C)[N+]1(CC)CCCCC1` (stereo not shown) [Compound 6, 1-(1-(2,6-dimethylphenylamino)-1-oxobutan-2-yl)-1-ethylpiperidinium], at human Nav1.7 channels, 100 µM produced 83% inhibition and the “effect on sodium current when applied externally versus inside the cell” value is “far more effective when applied inside the cell”. The “use dependent accumulation of block” value at human Nav1.7 channels (100 micromolar inside cell, stimulation frequencies from 1 to 10 Hz) is given as “strong use dependent accumulation of block”. Further, the “effect on sodium current when applied externally versus inside the cell” value at human Nav1.7 channels (listed as compound 6) was “very little effect”.
